Assay results published in article PMC6407599 (Journal of Enzyme Inhibition and Medicinal Chemistry, 2019).
Where “and” joins values, the source holds several entries; their conditions need not be identical. Equal entries are not always repeated. Structures can show the parent of a compound that is named as a salt. Where two headings read alike, the source gives them in different places. Square brackets hold non-standard residues; d marks the D form. Peptide text beside a SMILES is read from it. * marks the point of attachment. Lys(Me2) = CN(C)CCCC[C@H](N)C(=O)O; Lys(Me) = CNCCCC[C@H](N)C(=O)O; Cbz = O=C(OCc1ccccc1)*

What was measured:
[1] = Metabolism assay using human liver microsomes; format: in vitro ADME; details: for cleavage of acetyl or trifluoroacetyl group by human liver microsomes: 180 min incubation; for cleavage of acetyl group by human liver microsomes: after 10 min
Method: Human liver microsomes (Life Technologies Gibco cat. # HMMPCL) were thawed on ice and suspended in 100 mM phosphate buffer (pH 7.4) at 0.5 mg/mL. Compounds dissolved in DMSO were then added to the reaction mixture at a final concentration of 5 µM and a final DMSO concentration of 0.1%. Metabolism was initiated by adding 5 mM NADPH and the reactions were incubated at 37 °C in a water bath. Fifty microlitre aliquots of the reaction mixture were taken at various time points and added to 100 µL of cold methanol to terminate the reaction. The time points were centrifuged at 1000 × g for 5 min. Samples were stored at −20 °C until LC/MS analysis.
Using commercially available liver microsomes that contain the full set of endoplasmic reticulum-based metabolic enzymes, including Cyp450s, in an in vitro system the O- and N-dealkylation processes of LB55 were evaluated (Figure 3)[47–48]. Human liver microsomes were purchased from Life Technologies Australia Pty Ltd (catalogue number HMMCPL) and were prepared from a pool of 50 individual male and female donors. The microsomes were diluted into phosphate buffer at pH 7.4 and incubated with LB55 at 37 °C in the presence of the enzyme cofactor NADPH, which initiates the reactions. Aliquots of the reaction mixture were taken at several time points and quenched with cold methanol, which inhibits enzyme activity. The samples were immediately centrifuged at high speed to pellet the microsomes and the supernatants were analysed via LC/MS
However, for simplicity and speed of assessment we opted to identify the removal of the pro-drug moieties using LC/MS in selected-ion mode (SIM). We scanned for specific mass-to-charge ratios (m/z) based on the molecules molecular weight. […] LB55 was incubated with the human liver microsomes for 180 min and samples were taken at 0, 10, 20, 30, 60, 120, and 180 min and analysed via LC/MS in SIM mode. The scanning range was set at m/z 600–800, as this range would capture both the parent LB55 and any demethylated metabolites including LB51 (Figure 3).
Using the same commercially available liver microsomal assay described earlier, we evaluated the removal of acetylated and trifluoroacetylated amino acids. The studies were performed on three amino acids on LB51 that required protecting groups: serine, tyrosine, and lysine (Figure 4).

[2] = test system: Hsp90-Cyp40 interaction (C-terminal domain of Hsp90 and full-length Cyp40); test: AlphaLISA binding assay, Hsp90-Cyp40 interaction; details: for efficacy at inhibiting the binding event between Hsp90 and Cyp40: C-terminal domain of Hsp90 and full-length Cyp40; for IC50: C-terminal domain of Hsp90 and full-length Cyp40, DMSO (1%) = 100% binding, read-out: IC50, inhibition of Hsp90-Cyp40 interaction
Method: The binding assays were performed using an Hsp90 (C-terminal) Inhibitor Screening Kits (cat. 50314 or 50317) purchased from BPS Bioscience. The assay was performed according to the manufacturer's protocol and utilised AlphaLISA® technology (PerkinElmer). The test compounds were dissolved in 100% DMSO and diluted with water to the desired concentration, so that the final dilution was dissolved in 5% DMSO with water. Two microlitres of the dilution was added to a 10 µL reaction so that the final concentration of DMSO was 1% in all reactions. The reactions were conducted at room temperature for 30 min in a 10 µL mixture containing assay buffer, 6 ng (24 nM) of a C-terminal Hsp90β (UniProt P08238, a.a. 527–724) or C-terminal Hsp90α (UniProt P07900, a.a. 535–732), 40 ng (60 nM) Cyp40, and the test compound. Note: for the full-length Hsp90 binding assays, C-terminal Hsp90 was replaced with 24 nM of full-length Hsp90α (Abcam cat # ab48801). After the 30 min incubation, 10 µL of buffer containing 20 µg/mL glutathione acceptor beads (Perkin Elmer) were added to the reaction mix and incubated for 30 min in the dark. Ten microlitres of 40 µg/mL streptavidin donor beads (Perkin Elmer) were then added and the final 30 µL mixture was incubated for 1 h in the dark. The AlphaLISA® signal was measured using a Tecan F200 Pro multimode plate reader.
Modifications to the side chains using the common strategy of O- and N-alkylations were the first prodrugs produced (Figure 2). Compounds LB58, LB56, LB97, and LB55 were all based on the structure of LB51 but contained polar side chains that were masked with methyl moieties (Figure 2). […] However, masking groups often affect the target binding affinity, and evaluation of these molecules in binding assays was required. A biochemical assay using AlphaLISA technology was used to evaluate the efficacy of these molecules in blocking the interaction between Hsp90 and the co-chaperone, Cyp40 (Figure 2). Each compound was incubated at multiple concentrations with the C-terminal domain of Hsp90 and full-length Cyp40. Beads specific for each protein were incubated with the reaction mixture. When the two proteins are bound to each other, the beads for one protein transfer energy to the beads of the other protein, thereby producing a signal. When the binding interaction between the two proteins is inhibited, energy transfer cannot occur, which results in no signal being produced. DMSO (1%) was used as a control, where it represents 100% binding between the two proteins.
The alpha biochemical assay was used to evaluate the efficacy of these two molecules, LB51(Ac)2–Cbz and LB63(Ac)2–Cbz, in blocking the interaction between Hsp90 and the co-chaperone, Cyp40 (Figure 6(A)). Each compound was incubated at multiple concentrations with the C-terminal domain of Hsp90 and full-length Cyp40. DMSO (1%) was used as a negative control to represent 100% binding between the two proteins, and LB51 and LB63 were used as positive controls, inhibiting the binding event. LB51(Ac)2–Cbz was ineffective at inhibiting the interaction between Hsp90 and Cyp40 (Figure 6(a)).

Caco-2 = details: cited from earlier work; for apparent permeability Papp: Caco-2 assays
mouse liver = test: Metabolism assay in a mouse (liver extract, LC/MS); format: in vivo; details: IP injection 59.4 mg/kg, 1 h
Method: Mice were purchased from Australian BioResources (ABR) (Moss Vale, NSW, Australia) at 7 weeks of age and shipped to a specific pathogen-free facility at UNSW Biological Resources Centre (Sydney, Australia) with 12 h light/dark cycles. Following 1 week of acclimatisation, mice were injected in the intraperitoneal space with LB55 (1.2 mg in 120 µL Milli-Q water). One hour later, mice were euthanised by CO2 asphyxiation and the liver was collected for drug extraction. All mouse experiments were approved by the UNSW Animal Care and Ethics Committee. To extract the compound for LC/MS analysis, the liver tissue was powdered in a mortar and pestle that had been pre-cooled with liquid nitrogen. The tissue was then homogenised in phosphate buffered saline (pH 7.4) by sonication for 2 h. The homogenate was then centrifuged at 800 × g for 10 min at 4 °C before collecting the supernatant. […] The extraction was then centrifuged at 1000 × g for 10 min at 4 °C and subsequently analysed by LC/MS.
The stability of LB55 in a mouse liver was accomplished by treating the mouse with LB55 via intraperitoneal (IP) injection at 59.4 mg/kg for 1 h. […] The mixture was then centrifuged, and the supernatant was analysed via LC/MS in SIM mode, scanning for parent LB55 and any demethylated metabolites including LB51.

C-terminal Hsp90β [3] = biological target: T1, C-terminal Hsp90β (UniProt P08238, a.a. 527–724) or C-terminal Hsp90α (UniProt P07900, a.a. 535–732) (UniProt P08238); test: AlphaScreen or HTRF; AlphaLISA competition (BPS Bioscience kit): 24 nM C-terminal Hsp90, 60 nM Cyp40 and test compound in 10 µL assay buffer, 1% DMSO, room temperature, 30 min; then glutathione acceptor beads and streptavidin donor beads; DMSO = 100% binding
C-terminal Hsp90β [4] = biological target: T1, C-terminal Hsp90β; test: as above; remark: listed apart in the source
[5] = biological target: C-terminal Hsp90 (His-tagged, competitive binding assay); test: pull-down; competitive binding: C-terminal Hsp90 (100 µM) with LB51-tag (100 µM) 1 h at RT, then untagged compound (0–100 µM) 1 h; captured on NeutrAvidin agarose, 6 washes; Hsp90 detected by Western blot with anti-6×His; DMSO = 100% binding
Chain of C-terminal Hsp90 (His-tagged, competitive binding assay) (P08238 527-724): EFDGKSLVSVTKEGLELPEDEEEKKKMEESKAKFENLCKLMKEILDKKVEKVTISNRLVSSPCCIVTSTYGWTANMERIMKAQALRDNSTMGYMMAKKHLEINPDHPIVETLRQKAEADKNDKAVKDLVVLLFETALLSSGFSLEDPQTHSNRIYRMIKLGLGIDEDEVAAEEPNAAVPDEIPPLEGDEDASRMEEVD

For CC(=O)NCCCC[C@H](NC(=O)OCC1c2ccccc2-c2ccccc21)C(=O)O, the “cleavage of acetyl or trifluoroacetyl group by human liver microsomes” value [1] was “not cleaved”.

In the case of O=C(N[C@@H](CCCCNC(=O)C(F)(F)F)C(=O)O)OCC1c2ccccc2-c2ccccc21 [Fmoc-Lys(Tfa)-OH], the “cleavage of acetyl or trifluoroacetyl group by human liver microsomes” value [1] is reported as “not cleaved”.

With CC(=O)OC[C@H](NC(=O)OCC1c2ccccc2-c2ccccc21)C(=O)O [Fmoc-Ser(Ac)-OH] the “cleavage of acetyl group by human liver microsomes” value [1] was “mostly cleaved”.

With CC(=O)Oc1ccc(C[C@H](NC(=O)OCC2c3ccccc3-c3ccccc32)C(=O)O)cc1 [Fmoc-Tyr(Ac)-OH] the “cleavage of acetyl group by human liver microsomes” value [1] was “mostly cleaved”.

For CC(=O)OC[C@@H]1NC(=O)[C@H](CC(N)=O)NC(=O)[C@H](CCCCNC(=O)OCc2ccccc2)NC(=O)[C@H](Cc2ccccc2)NC(=O)[C@H](Cc2ccc(OC(C)=O)cc2)NC1=O [LB51(Ac)2–Cbz, cyclo-Phe-Tyr(Ac)-Ser(Ac)-Asn-Lys(Cbz)] (cyclo(K(Cbz)NS(Ac)Y(Ac)F)), the “efficacy at inhibiting the binding event between Hsp90 and Cyp40” value [2] was “ineffective”.

For NCCCC[C@@H]1NC(=O)[C@H](Cc2ccccc2)NC(=O)[C@H](Cc2ccc(O)cc2)NC(=O)[C@H](CO)NC(=O)[C@H](CC(N)=O)NC1=O [LB51] (cyclo(KNSYF)), the “efficacy at inhibiting the binding event between Hsp90 and Cyp40” value [2] is given as “most effective”, the IC50 [2] is given as 4 µM and the “apparent permeability Papp” value (Caco-2) is given as 3.3e-06 cm/s and 3e-06 cm/s. For the same molecule, the membrane permeability Papp (Caco-2; backbone N-methylation study) was 3 10^-6 cm/s.

For COC[C@@H]1NC(=O)[C@H](CC(N)=O)NC(=O)[C@H](CCCCN(C)C)NC(=O)[C@H](Cc2ccccc2)NC(=O)[C@H](Cc2ccc(OC)cc2)NC1=O [LB55] (cyclo([Lys(Me2)]NS(Me)Y(Me)F)), the “metabolism by human liver microsomes (LC/MS SIM)” value ([1]; 5 µM, NADPH, 37 °C, 180 min) is listed as “no metabolism occurred”, the “apparent permeability Papp” value (Caco-2) is listed as 5.6e-06 cm/s and the “metabolism in mouse liver (LC/MS of liver extract)” value (mouse liver) is listed as “a small quantity of LB51 is produced”.

CC(=O)OC[C@@H]1NC(=O)[C@H](CC(N)=O)NC(=O)[C@H](CCCCNC(=O)OCc2ccccc2)NC(=O)[C@H](C)NC(=O)[C@H](Cc2ccc(OC(C)=O)cc2)NC1=O [LB63(Ac)2–Cbz, cyclo-Ala-Tyr(Ac)-Ser(Ac)-Asn-Lys(Cbz)] (cyclo(K(Cbz)NS(Ac)Y(Ac)A)) gave an IC50 [2] of 10 µM.

For C[C@@H]1NC(=O)[C@H](Cc2ccc(O)cc2)NC(=O)[C@H](CO)NC(=O)[C@H](CC(N)=O)NC(=O)[C@H](CCCCN)NC1=O [LB63] (cyclo(KNSYA)), the IC50 [2] is listed as 2 µM and the “apparent permeability Papp” value (Caco-2) is listed as 9e-07 cm/s.

In the case of CNCCCC[C@@H]1NC(=O)[C@H](Cc2ccccc2)NC(=O)[C@H](Cc2ccc(OC)cc2)NC(=O)[C@H](CO)NC(=O)[C@H](CC(N)=O)NC1=O [LB97] (cyclo([Lys(Me)]NSY(Me)F)), the “efficacy at inhibiting the binding event between Hsp90 and Cyp40” value [2] is given as “most effective” and the “apparent permeability Papp” value (Caco-2) is given as 1.9e-06 cm/s.

B1: LB51 (peptide)
peptide: KNSYF
modifications: head-to-tail cyclic
B1 gave an IC50 (C-terminal Hsp90β [3]) of 4 µM.

B2: LB51(Ac)2–Cbz (peptide)
peptide: cyclo(K(Cbz)NS(Ac)Y(Ac)F)
SMILES: CC(=O)OC[C@@H]1NC(=O)[C@H](CC(N)=O)NC(=O)[C@H](CCCCNC(=O)OCc2ccccc2)NC(=O)[C@H](Cc2ccccc2)NC(=O)[C@H](Cc2ccc(OC(C)=O)cc2)NC1=O
For B2, the IC50 (C-terminal Hsp90β [4]) was > 10 µM.

B3: LB63 (peptide)
peptide: KNSYA
modifications: head-to-tail cyclic
Molecule B3 has an IC50 (C-terminal Hsp90β [3]) of 2 µM.

B4: LB63(Ac)2–Cbz (peptide)
peptide: cyclo(K(Cbz)NS(Ac)Y(Ac)A)
SMILES: CC(=O)OC[C@@H]1NC(=O)[C@H](CC(N)=O)NC(=O)[C@H](CCCCNC(=O)OCc2ccccc2)NC(=O)[C@H](C)NC(=O)[C@H](Cc2ccc(OC(C)=O)cc2)NC1=O
With B4 the IC50 (C-terminal Hsp90β [4]) was > 10 µM, the IC50 (C-terminal Hsp90β [3]) was 10 µM and the IC50 [5] was 20 µM.
